From ChEMBL document CHEMBL1909046, “DrugMatrix in vitro pharmacology data”

Legend:
[1] = target: Cytochrome P450 3A4 (Homo sapiens, UniProt P08684); conditions: bti-tn-5b1-4; also: in other assays of this panel Not Active means under 50% inhibition at 10 µM
[2] = target: T1, Cytochrome P450 1A2 (Homo sapiens, UniProt P05177); conditions: bti-tn-5b1-4; also: in other assays of this panel Not Active means under 50% inhibition at 10 µM
T1 sequence (P05177 whole entry): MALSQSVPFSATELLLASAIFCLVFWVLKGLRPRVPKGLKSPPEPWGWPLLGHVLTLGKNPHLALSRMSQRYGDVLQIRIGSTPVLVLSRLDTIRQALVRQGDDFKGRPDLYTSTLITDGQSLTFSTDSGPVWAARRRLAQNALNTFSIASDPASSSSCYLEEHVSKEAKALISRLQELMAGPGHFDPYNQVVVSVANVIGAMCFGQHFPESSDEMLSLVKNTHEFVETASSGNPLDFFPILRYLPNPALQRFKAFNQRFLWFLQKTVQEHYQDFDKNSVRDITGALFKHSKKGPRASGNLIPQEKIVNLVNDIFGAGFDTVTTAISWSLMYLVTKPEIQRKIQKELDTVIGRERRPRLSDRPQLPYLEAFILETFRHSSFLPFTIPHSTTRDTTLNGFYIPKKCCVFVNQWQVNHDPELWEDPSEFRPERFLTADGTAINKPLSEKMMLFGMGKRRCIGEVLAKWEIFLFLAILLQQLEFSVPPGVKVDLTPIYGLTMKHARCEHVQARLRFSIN

[3] = target: Sodium-dependent noradrenaline transporter (Homo sapiens, UniProt P23975); assay: DRUGMATRIX: Norepinephrine Transporter radioligand binding (ligand: [125I] RTI-55); assay type: cell membranes, MDCK, Membrane; conditions: mdck; Not Active = under 50% inhibition at 10 µM
[4] = target: T2, Glucocorticoid receptor (Homo sapiens, UniProt P04150); conditions: hela s3; also: in other assays of this panel Not Active means under 50% inhibition at 10 µM
T2 sequence (P04150 whole entry): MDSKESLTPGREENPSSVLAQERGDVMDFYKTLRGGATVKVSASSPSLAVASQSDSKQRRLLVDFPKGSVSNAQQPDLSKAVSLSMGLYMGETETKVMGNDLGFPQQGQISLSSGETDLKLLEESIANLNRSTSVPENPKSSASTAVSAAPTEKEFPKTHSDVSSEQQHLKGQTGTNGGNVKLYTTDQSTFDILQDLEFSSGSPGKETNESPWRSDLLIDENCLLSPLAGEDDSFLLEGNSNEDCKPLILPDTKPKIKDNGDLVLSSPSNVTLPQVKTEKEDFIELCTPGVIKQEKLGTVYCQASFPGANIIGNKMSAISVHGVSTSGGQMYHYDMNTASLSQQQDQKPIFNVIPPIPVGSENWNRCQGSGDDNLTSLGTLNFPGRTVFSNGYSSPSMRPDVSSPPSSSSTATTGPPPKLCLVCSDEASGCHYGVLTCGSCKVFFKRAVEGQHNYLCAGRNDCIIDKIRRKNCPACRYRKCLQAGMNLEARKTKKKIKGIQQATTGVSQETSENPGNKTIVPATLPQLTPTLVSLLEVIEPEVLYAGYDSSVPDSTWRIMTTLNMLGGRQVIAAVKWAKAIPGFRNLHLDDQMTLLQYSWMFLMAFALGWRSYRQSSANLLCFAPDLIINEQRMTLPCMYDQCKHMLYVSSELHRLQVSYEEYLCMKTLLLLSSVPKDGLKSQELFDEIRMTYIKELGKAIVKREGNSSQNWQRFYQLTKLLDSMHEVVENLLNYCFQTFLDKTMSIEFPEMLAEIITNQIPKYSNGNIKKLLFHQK

[5] = target: Voltage-gated inwardly rectifying potassium channel KCNH2 (Homo sapiens, UniProt Q12809); conditions: hek293; also: in other assays of this panel Not Active means under 50% inhibition at 10 µM
[6] = target: Cytochrome P450 2C19 (Homo sapiens, UniProt P33261); conditions: bti-tn-5b1-4; also: in other assays of this panel Not Active means under 50% inhibition at 10 µM
[7] = target: Cytochrome P450 2D6 (Homo sapiens, UniProt P10635); conditions: bti-tn-5b1-4; also: in other assays of this panel Not Active means under 50% inhibition at 10 µM
[8] = target: Cytochrome P450 2C9 (Homo sapiens, UniProt P11712); conditions: bti-tn-5b1-4; also: in other assays of this panel Not Active means under 50% inhibition at 10 µM
[9] = target: Estrogen receptor beta (Homo sapiens, UniProt Q92731); conditions: sf9; also: in other assays of this panel Not Active means under 50% inhibition at 10 µM
Estrogen receptor beta, sequence (Q92731 whole entry): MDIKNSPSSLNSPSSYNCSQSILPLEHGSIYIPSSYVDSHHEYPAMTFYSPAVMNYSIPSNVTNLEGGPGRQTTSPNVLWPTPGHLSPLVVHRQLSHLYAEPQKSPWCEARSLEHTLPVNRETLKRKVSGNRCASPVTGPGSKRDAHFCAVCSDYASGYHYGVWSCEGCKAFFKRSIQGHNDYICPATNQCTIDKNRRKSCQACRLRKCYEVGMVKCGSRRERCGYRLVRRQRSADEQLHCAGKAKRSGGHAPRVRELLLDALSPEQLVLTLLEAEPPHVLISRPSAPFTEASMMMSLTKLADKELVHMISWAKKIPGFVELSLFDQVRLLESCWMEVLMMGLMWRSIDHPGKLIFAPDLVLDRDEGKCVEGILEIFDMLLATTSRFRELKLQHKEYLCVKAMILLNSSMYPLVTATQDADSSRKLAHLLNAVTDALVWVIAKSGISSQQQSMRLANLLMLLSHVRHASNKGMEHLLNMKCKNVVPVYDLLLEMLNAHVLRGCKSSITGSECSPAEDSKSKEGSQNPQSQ

Sodium-dependent noradrenaline transporter, sequence (P23975 whole entry): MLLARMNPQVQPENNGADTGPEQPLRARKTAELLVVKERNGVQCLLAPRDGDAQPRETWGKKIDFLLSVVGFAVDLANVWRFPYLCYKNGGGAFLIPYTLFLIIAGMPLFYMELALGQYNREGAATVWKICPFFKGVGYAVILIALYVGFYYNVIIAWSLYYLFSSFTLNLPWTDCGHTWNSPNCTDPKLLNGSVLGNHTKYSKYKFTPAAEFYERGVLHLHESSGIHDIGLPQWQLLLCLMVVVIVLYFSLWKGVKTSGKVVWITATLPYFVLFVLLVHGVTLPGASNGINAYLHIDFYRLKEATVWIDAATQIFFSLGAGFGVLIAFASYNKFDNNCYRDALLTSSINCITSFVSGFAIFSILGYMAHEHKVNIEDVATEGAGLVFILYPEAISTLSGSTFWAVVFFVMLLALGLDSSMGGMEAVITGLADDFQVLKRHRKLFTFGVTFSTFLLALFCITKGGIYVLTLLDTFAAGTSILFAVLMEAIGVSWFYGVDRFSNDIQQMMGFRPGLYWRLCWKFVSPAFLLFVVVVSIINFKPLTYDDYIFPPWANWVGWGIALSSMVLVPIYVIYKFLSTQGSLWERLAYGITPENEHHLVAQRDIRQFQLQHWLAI
Cytochrome P450 2C9, sequence (P11712 whole entry): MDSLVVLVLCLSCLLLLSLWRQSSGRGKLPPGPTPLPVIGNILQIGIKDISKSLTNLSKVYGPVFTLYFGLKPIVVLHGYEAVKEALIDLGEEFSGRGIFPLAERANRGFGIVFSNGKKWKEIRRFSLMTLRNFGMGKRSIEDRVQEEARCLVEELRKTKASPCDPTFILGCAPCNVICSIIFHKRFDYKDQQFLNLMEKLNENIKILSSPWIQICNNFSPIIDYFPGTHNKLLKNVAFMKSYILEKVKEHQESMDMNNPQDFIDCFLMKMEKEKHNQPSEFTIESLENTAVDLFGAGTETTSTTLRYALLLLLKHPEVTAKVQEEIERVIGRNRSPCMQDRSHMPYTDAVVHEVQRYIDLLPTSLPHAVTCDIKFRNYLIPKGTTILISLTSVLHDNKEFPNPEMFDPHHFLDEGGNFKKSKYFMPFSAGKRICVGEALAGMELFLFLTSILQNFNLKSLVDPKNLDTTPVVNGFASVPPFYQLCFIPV
Cytochrome P450 3A4, sequence (P08684 whole entry): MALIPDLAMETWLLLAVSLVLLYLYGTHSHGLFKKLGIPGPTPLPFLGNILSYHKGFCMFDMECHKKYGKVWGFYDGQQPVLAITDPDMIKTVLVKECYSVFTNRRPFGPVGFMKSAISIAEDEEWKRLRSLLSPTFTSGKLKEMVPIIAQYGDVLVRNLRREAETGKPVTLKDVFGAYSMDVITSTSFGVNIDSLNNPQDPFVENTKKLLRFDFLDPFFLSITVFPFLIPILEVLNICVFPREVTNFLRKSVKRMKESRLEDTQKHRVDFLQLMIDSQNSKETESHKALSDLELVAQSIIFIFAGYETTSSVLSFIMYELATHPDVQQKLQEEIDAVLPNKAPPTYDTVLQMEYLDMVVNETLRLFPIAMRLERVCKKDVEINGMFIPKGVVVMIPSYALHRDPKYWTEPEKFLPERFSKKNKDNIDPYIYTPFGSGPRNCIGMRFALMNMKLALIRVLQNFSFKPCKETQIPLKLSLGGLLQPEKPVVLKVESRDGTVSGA
Voltage-gated inwardly rectifying potassium channel KCNH2, sequence (Q12809 whole entry): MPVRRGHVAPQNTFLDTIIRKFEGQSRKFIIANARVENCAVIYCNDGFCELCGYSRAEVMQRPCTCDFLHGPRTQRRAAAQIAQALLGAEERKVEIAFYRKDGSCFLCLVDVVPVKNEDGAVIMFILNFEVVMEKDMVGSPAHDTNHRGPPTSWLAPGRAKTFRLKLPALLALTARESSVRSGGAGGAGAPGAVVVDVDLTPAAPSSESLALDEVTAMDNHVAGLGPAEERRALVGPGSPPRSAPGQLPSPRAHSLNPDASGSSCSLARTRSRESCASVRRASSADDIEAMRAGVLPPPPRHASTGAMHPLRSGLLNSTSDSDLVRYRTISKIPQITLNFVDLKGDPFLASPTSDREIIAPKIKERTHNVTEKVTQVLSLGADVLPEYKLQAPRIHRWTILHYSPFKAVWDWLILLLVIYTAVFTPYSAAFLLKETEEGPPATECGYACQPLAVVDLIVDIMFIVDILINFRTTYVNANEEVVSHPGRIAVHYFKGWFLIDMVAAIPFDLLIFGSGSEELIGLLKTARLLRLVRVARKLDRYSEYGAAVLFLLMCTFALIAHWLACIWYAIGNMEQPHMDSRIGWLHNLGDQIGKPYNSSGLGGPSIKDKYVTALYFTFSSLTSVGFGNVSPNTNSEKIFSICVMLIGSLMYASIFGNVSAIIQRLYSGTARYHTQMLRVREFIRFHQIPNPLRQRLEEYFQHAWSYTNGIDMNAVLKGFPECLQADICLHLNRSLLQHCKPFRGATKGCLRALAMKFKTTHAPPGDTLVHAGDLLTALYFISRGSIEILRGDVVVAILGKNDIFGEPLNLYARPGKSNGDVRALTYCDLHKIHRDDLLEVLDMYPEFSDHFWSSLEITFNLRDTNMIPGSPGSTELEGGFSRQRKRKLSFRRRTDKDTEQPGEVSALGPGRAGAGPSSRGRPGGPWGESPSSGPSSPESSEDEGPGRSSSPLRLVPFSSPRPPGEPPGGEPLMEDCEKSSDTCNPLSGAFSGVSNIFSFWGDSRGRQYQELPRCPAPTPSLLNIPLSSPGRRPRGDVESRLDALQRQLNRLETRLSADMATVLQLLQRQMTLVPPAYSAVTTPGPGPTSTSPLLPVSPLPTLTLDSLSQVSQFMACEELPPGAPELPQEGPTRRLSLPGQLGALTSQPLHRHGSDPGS
Cytochrome P450 2C19, sequence (P33261 whole entry): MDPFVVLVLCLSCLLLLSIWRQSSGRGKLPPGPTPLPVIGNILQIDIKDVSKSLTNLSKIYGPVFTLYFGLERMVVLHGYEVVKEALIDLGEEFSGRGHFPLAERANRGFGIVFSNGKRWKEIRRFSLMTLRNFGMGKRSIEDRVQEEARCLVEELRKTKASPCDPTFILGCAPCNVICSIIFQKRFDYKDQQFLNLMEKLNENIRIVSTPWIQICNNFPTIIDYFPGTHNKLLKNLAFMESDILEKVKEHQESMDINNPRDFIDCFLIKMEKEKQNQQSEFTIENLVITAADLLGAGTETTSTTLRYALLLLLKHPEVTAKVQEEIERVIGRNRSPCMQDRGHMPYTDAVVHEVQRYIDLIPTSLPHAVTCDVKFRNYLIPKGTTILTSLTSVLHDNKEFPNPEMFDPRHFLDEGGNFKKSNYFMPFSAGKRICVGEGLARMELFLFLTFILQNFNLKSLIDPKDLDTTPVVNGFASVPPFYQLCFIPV
Cytochrome P450 2D6, sequence (P10635 whole entry): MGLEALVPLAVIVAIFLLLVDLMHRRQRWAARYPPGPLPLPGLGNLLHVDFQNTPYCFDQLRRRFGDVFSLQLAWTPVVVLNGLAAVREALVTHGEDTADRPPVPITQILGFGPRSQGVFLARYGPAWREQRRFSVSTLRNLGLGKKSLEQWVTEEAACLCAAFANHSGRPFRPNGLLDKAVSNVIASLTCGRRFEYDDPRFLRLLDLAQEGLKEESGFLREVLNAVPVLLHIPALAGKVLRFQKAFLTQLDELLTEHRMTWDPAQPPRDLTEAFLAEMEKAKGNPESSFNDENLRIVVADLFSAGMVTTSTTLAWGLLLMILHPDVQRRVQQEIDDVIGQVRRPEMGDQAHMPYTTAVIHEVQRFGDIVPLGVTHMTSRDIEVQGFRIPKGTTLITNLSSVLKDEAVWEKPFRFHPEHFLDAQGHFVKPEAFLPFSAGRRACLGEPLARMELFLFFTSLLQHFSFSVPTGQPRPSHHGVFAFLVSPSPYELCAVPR

C[C@]12Cc3c[nH]nc3C[C@@H]1CC[C@@H]1[C@@H]2CC[C@@]2(C)[C@H]1CC[C@]2(C)O [STANOZOLOL]
Not Active: IC50 [1] | Ki [1] | IC50 [2] | Ki [2] | IC50 [3] | IC50 [4] | IC50 [5] | Ki [5]

NC(=O)c1ncn([C@@H]2O[C@H](CO)[C@@H](O)[C@H]2O)n1 [RIBAVIRIN]
Not Active: IC50 [6] | Ki [6] | IC50 [1] | Ki [1] | IC50 [2] | Ki [2] | IC50 [3] | IC50 [4] | IC50 [5] | Ki [5] | IC50 [7] | Ki [7]

CN1[C@@H]2CC[C@H]1C[C@@H](OC(=O)c1c[nH]c3ccccc13)C2 [TROPISETRON]
Not Active: IC50 [6] | Ki [6] | IC50 [1] | Ki [1] | IC50 [2] | Ki [2] | IC50 [8] | Ki [8] | IC50 [3] | IC50 [9] | IC50 [5] | Ki [5] | IC50 [7] | Ki [7]

NCCCC[C@H](N[C@@H](CCc1ccccc1)C(=O)O)C(=O)N1CCC[C@H]1C(=O)O [LISINOPRIL ANHYDROUS]
Not Active: IC50 [6] | Ki [6] | IC50 [8] | Ki [8] | IC50 [3] | IC50 [4] | IC50 [7] | Ki [7]

COc1ccc(C(CN(C)C)C2(O)CCCCC2)cc1 (stereo not given) [VENLAFAXINE]
Not Active: IC50 [6] | Ki [6] | IC50 [1] | Ki [1] | IC50 [2] | Ki [2] | IC50 [8] | Ki [8] | IC50 [5] | Ki [5] | IC50 [7] | Ki [7]

O=C(CCCN1CCC(O)(c2ccc(Cl)cc2)CC1)c1ccc(F)cc1 [HALOPERIDOL]
Not Active: IC50 [6] | Ki [6] | IC50 [1] | Ki [1] | IC50 [2] | Ki [2] | IC50 [8] | Ki [8] | IC50 [4] | IC50 [9] | IC50 [5] | Ki [5] | IC50 [7] | Ki [7]

CC(C)(C)NCC(O)c1cc(O)cc(O)c1 (stereo not given) [TERBUTALINE]
Not Active: IC50 [6] | Ki [6] | IC50 [1] | Ki [1] | IC50 [2] | Ki [2] | IC50 [8] | Ki [8] | IC50 [3] | IC50 [5] | Ki [5] | IC50 [7] | Ki [7]

Cc1cc(NS(=O)(=O)c2ccc(N)cc2)no1 [SULFAMETHOXAZOLE]
Not Active: IC50 [3] | IC50 [4] | IC50 [9]

COc1ccc(CCN2CCC(Nc3nc4ccccc4n3Cc3ccc(F)cc3)CC2)cc1 [ASTEMIZOLE]
Not Active: IC50 [6] | Ki [6] | IC50 [1] | Ki [1] | IC50 [2] | Ki [2] | IC50 [8] | Ki [8] | IC50 [4] | IC50 [7] | Ki [7]
